Measurements taken from patent US20100003754A1, “METHODS OF DIFFERENTIATING STEM CELLS” (Ossacur AG, priority 2006, published 2010).

Legend:
[1] = tested on: human mesenchymal stem cells (BMMSC); assay: Cell proliferation, CellTiter 96 (MTT); format: cell-based; details: TGF-β1 10 ng/ml; stayed at a lower proliferation rate than the control groups
Description: (§1) The cells were trypsinized and then counted using trypan blue. 60×10^3 or 15×10^3 mesenchymal stem cells were seeded in a 25 cm^2 cell culture bottle or in a 12-well plate. Each vessel was charged with an appropriate amount of standard medium (control group) or a medium which contained the joint or meniscus extract (of bovine origin) in a dilute solution of 1:25 or 1:50. Recombinant TGF-β1 protein (R&D Systems) with a concentration of 10 ng/ml was used for chondrocytic differentiation of the BMMSC as positive control. Cell supernatants were collected and stored at −80° C.
Investigations on the cell proliferation were carried out using “CellTiter 96 Non-Radio-active” (Promega). This is a method based on 3-(4,5-dimethylthiazol-2-yl)-2,5-diphenyltetrazolium bromide (MTT) which determines the property of metabolically active cells of converting a tetrazolium salt. For example, the conversion of pale yellow MTT by cellular dehydrogenases into the dark blue, water-insoluble formazan is proportional to the activity of the dehydrogenases and thus to the survival rate of the cells. The absorbance is measured at a wavelength of 595 nm. The cells were counted and seeded in a density of […] in a 96-well round-bottom plate. The cell proliferation was determined on day 1, 3, 7 and 14. […] The absorbance was measured at the wavelength of 595 nm with a reference wavelength of 655 nm.

[2] = tested on: BMMSC; assay: Quantification of chondroitin sulfate (Alcian blue); format: cell-based, human; details: parallel addition of 10 ng/ml TGF-β1
Description: as §1
The cells were washed with the PBS and then incubated with Alcian blue stain (1% Alcian blue in 3% strength acetic acid) for 20 minutes. The cells were decolorized by washing three times with 3% strength acetic acid and washing once with water. To quantify the stain which has been taken up, the cells were solubilized by shaking in 1% strength SDS solution at room temperature for 30 minutes and then heating at 90° C. for one hour. The absorbance was detected at the wavelength of 595 nm.

[3] = tested on: BMMSC; assay: Real time RT-PCR of cartilage-specific differentiation markers (SOX9, Aggrecan); format: cell-based, human; details: transcription level; treatment with TGF-β1
Description: Total cellular ribonucleic acid (RNA) was extracted using “NucleoSpin RNA II” from Macherey-Nagel. 1 μg of the RNA was amplified using a “one-step RT-PCR kit” (ABgene, UK). Real time (RT) PCR primers specific for collagen type I, SOX9, Aggrecan and glyceraldehyde-3-phosphate dehydrogenase (GAPDH) were used. Amplification of the so-called housekeeping gene GAPDH was used to verify the quality of the RNA and ensure uniform loading of resolving gels with the samples. A real time reverse transcription PCR was carried out using a LightCycler (Roche Diagnostic). The RT-PCR conditions included an RT step of 20 minutes at 61° C. to produce single-stranded cDNA from mRNA, followed by an inactivation of reverse transcriptase and denaturation at 95° C. for 30 seconds. 40 amplification cycles of one second at 95° C., of 15 seconds at 58° C. and of 13 seconds at 72° C. were carried out. Finally, a cooling step of 30 seconds at 40° C. was carried out.

[4] = tested on: BMMSC; assay: Aggrecan immunofluorescence; format: cell-based, human; details: day 14; recombinant TGF-β1 only
Description: The cells were seeded in a density of 15×10^3 in a 12-well plate. 14 days after the treatment with the extracts, the cells were washed with PBS and then fixed with ice-cold 70% strength ethanol for at least 18 hours. The cells were then blocked in 3% strength goat serum (normal goat serum NGS) for one hour, and thereafter mouse anti-Aggrecan antibodies (Chemicon) were used with a concentration of 1 μg/ml and incubated at 4° C. for at least 18 hours. The primary antibodies were then removed, the cells were washed three times with PBS and subsequently incubated with anti-mouse FITC-conjugated IgM (Molecular Probes) in a ratio of 1:1000 for one hour. The secondary antibodies were removed and the cells were washed three times with the PBS. A negative control was carried out with the secondary antibody. After the incubation, the cells were washed, put on supports and inspected using a fluorescence microscope.

Substance: TGF-β1: Recombinant TGF-β1 protein (R&D Systems), 10 ng/ml, positive control for chondrocytic differentiation
- cell proliferation [1]: graduated increase
- chondroitin sulfate [2]: increase in chondroitin sulfate
- mRNA for aggrecan [3]: significantly increased
- number of aggrecan-positive cells compared with the untreated control samples [4]: larger numbers
